# Reference: US11260050B2, “Combination of cotinine plus antioxidant for treatment-resistant depression and correction of astrocytes functional deficit induced by depression and other neuropathological” (UNIVERSIDAD SAN SEBASTIAN, priority 2017, dated 2022)
# Assays:
# GFAP = GFAP immunoreactivity and GFAP+ cell density, hippocampus and frontal cortex (Example 2); format: in vivo, C57BL/6 male mice
# Protocol: Mice between 2-3 months of age after one week of acclimatization were randomly divided into two groups. Stressed mice were subjected to restraint stress. Control (non-restrained) mice were allowed to move freely during this period. After the stress exposure period, mice were divided into three experimental groups: 1) Non-restrained mice treated with vehicle (PBS, pH 7.4) serving as unstressed controls (n=8); 2) Restrained mice (RS) treated with vehicle (n=8); 3), RS mice treated with 24 μl of a cotinine solution (10 mg/ml in PBS, pH 7.4) via intranasal route of administration (n=6). Treatments were administered daily until euthanasia. After two weeks of treatments mice were behaviorally tested and euthanized (FIG. 10)
# For all protein analyses, mice were euthanized and brains removed. Each brain was divided into two hemispheres. The left hemisphere of brains was dissected out to collect the regions of interest and quickly frozen for later analyses. For the immunohistochemical (IHC) analysis the right hemisphere of each mouse brain was placed in 10% formalin in PBS pH 7.4 for 48 h and then embedded in paraffin. Each region of interest was located using Paxinos Atlas as a reference (Paxinos and Franklin, 2004), and serial […] of 4 μm (n≥5/mouse) were collected using the Microtome Leica RM 2125RT and mounted on silanized glass slides.
# The analysis of GFAP^+ cells was performed using tissue slices containing the ventral hippocampus (Approx. Bregma −4.08 mm, interaural 4.92 mm) and frontal cortex (Approx. Bregma 3.2 mm, interaural 1.54 mm). Sagittal sections of brains were collected in PBS and processed for GFAP immunoreactivity (IR). Brain slices were immersed in xylene and a decreasing graduation of ethanol baths for hydration. Then, slides were subjected to a standard process of antigenic recovery in buffer citrate pH=6 in a pressurized saucepan (Biocare Medical, Walnut Creek, Calif.) for 30 min. Next, slides were incubated with a solution of 3% hydrogen peroxide to block endogenous peroxidase for 5 min, washed with PBS, and blocked with a horse serum solution (Vectastain Elite ABC, Vector Laboratories, Burlingame, Calif., USA) for 10 min at room temperature (RT). Sections were washed in PBS and incubated for 1 hour (Franklin, 2001) at RT with an antibody against GFAP 1:100 (Sigma). After washing with PBS, sections were incubated with a biotinylated secondary antibody for 10 min. Then, sections were washed with PBS and incubated with the amplifier solution from the Vectastain Elite kit for 10 min at RT. The reaction was visualized using ImmunoDetector DAB (SB Bio Inc., Santa Barbara, Calif., USA). For counterstaining, sections were stained with hematoxylin for 30 seconds (sec), dehydrated in baths of ascending percentages of alcohol solutions and xylene, and mounted with synthetic resin.
# For the IR analysis, for each mouse, three digital images were randomly selected at 40× magnifications in the areas of interest (hippocampus and frontal cortex) (n=5-6/condition). […] The determination of the area of the immunolabeling was calculated delimiting the IR areas using the ImageJ software (National Institute of Health, Bethesda, […]., USA). For all analyses, GFAP^+ astrocytes were selected randomly from the frontal cortex and the CA1, CA3 and dentate gyrus regions of the hippocampus and quantified. […]
# conditioned mice = assay: Fear retention and extinction tests after fear conditioning (Example 4); format: in vivo, Mice C57BL/6
# Protocol: Three-month-old mice (n=5-6/condition) were weighed and assigned to treatment groups. Mice were treated with vehicle or drugs, starting two h after fear conditioning and daily after behavioral testing until euthanasia. Mice received daily treatments with 1. PBS (phosphate buffer saline, pH 7.4) via intranasal; 2. Cotinine (10 mg/ml) dissolved in PBS via intranasal (IN Cot, 24 μl); 3. Krill oil dissolved in PBS, via intranasal (48 mg/ml, 24 μl); 4. Cotinine (10 mg/ml) plus krill oil dissolved in PBS, via intranasal (48 mg/ml, 24 μl); 5.
# For intranasal delivery, mice were hand-restrained, placed in a supine position, and given two 12 μl drops of cotinine solutions, or PBS, into both nares consecutively. Mice were given an extra 12 μl treatment drop if the subject forcibly ejected or sneezed out the solution. Mice were held supine for 5-10 seconds after delivery to ensure that all fluid was inhaled.
# Contextual fear conditioning was performed as described. The conditioning chamber used (33 cm×20 cm×22 cm) is surrounded by a sound-attenuating box with a camera connected to freeze frame software (MED Associates Inc.) and equipped to provide a background white noise (72 dB). The conditioning chamber contains in one side a speaker and in the opposite side has a 24V light, and a 36-bar insulated shock grid floor. To perform this test, each mouse was placed in the conditioning chamber for 2 min before the onset of a discrete tone (a sound that will last 30 seconds (sec) at 2,800 Hz and 85 dB). In the last two seconds of this tone, mice received a foot shock of 1 mA, kept in the conditioning chamber for 2 min and returned to their home cages. Between trials, the chamber was sanitized with 70% ethanol and dried. Freezing behavior was defined as the absence of all movement except the one needed for breathing was assessed using the FreezeView Software (MED Associates Inc.).
# Fear retention and extinction experiments were performed as described, using the same cohorts of mice and reproduced in two separate experiments. To assess fear retention and mice underwent re-exposure to the conditioning chamber in the absence of an unconditioned stimulus (shock or auditory cues) for 3 minutes (min) in daily extinction trials. Freezing behavior was measured using the ANY-Maze® software (Stoelting CO, USA). The extinction trials were continued until the decrease in freezing behavior reached a stable level.
# [1] = cotinine IN administered after RS
compound,measurement,setting,value
"CN1C(=O)CC[C@H]1c1cccnc1 [Cotinine, (5S)-1-methyl-5-(3-pyridyl) pyrrolidin-2-one]",number of hippocampal GFAP+ cells counted,"GFAP; Ctrl 144, RS 97",140
same,GFAP IR in the frontal cortex,GFAP; [1],90 % of control values
same,GFAP IR in the hippocampus,GFAP; [1],84 % of control value
same,GFAP+ cell density in hippocampal regions,"GFAP; restrained mice, CA1 p<0.01, CA2 p<0.05, DG p<0.01",significantly higher in the cotinine-treated restrained mice relative to vehicle-treated restrained mice
same,GFAP+ cell density in control (non-stressed) mice,GFAP; vehicle-treated vs cotinine-treated control mice,No significant differences
same,freezing behavior during daily extinction trials (speed of fear extinction),"conditioned mice; 5 days of extinction, daily treatment",faster extinction of fear
same,day on which maximal decrease in freezing was reached,conditioned mice; same time as mice treated with PBS,4 days
same,fear reaction (freezing) in the retention test,"conditioned mice; treatment started 2 h after FC, IN cotinine 10 mg/ml, IN KO 48 mg/ml, oral sertraline 3 mg/kg",significant decrease in the fear reaction in the retention test
